Where “and” joins values, the source holds several entries; their conditions need not be identical. Equal values may be shown once.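 Results reflect a 48-hour exposure of cells in 96-well plates to compound at five concentrations. The concentration for 50% growth inhibition is given as GI50. TGI marks complete inhibition of growth.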

The values below come from PubChem BioAssay (NCI).

Holding throughout (experiment): NCI tumour cell line growth inhibition, 48 h
Test [1] relates to ACHN renal.
Test [2] relates to CAKI-1 renal.
The test system of test [3] is MOLT-4 leukemia.
Test [4] relates to OVCAR-8 ovarian.
Test [5] deals with PC-3 prostate.
In test [6] the test system is RPMI-8226 leukemia.
Test [7] has as its system SF-268 CNS.
Test [8] has as its system TK-10 renal.
In test [9] the test system is U251 CNS.
Test [10] deals with UACC-62 melanoma.

As for `O=C(NNc1nc2c(F)cccc2n2cccc12)c1cnccn1`, the GI50 in [1] is 0.25 µM; in [2] it was 0.628 µM; in test [3], 0.302 µM; in [4], 0.414 µM; in test [5], 0.393 µM; in [6], 0.418 µM. Further, the GI50 in test [7] was 0.484 µM; in test [8] it was 5.05 µM; in test [9] it was 0.306 µM; in [10], 0.477 µM. Further, the TGI in [1] is 36 µM; in test [2], 16.4 µM; in test [3], over 100 µM; in test [4] it was over 81.6 µM; in test [5] it was 39.5 µM; in [6], 9.88 µM. For the same compound, the TGI in test [7] was over 67.7 µM; in test [8], 60.9 µM; in test [9] it was 29.2 µM; in test [10], 6.28 µM.

Turning to `Cc1cc2nc3c4cc(Cl)ccc4n(CCN(C)C)c3nc2cc1C`, the GI50 in test [1] is 0.66 µM; in test [2], 1.06 µM; in test [3], 0.586 µM; in [4] it was 1.4 µM; in test [5] it was 1.65 µM; in test [6], 1.55 µM. Also, the GI50 in test [7] was 1.93 µM; in test [8], 2.51 µM; in test [9], 1.43 µM; in test [10], 1.65 µM. For the same compound, the TGI was 2.01 µM in [1]; 2.8 µM in test [2]; 3.44 µM in test [3]; 6.33 µM in test [4]; 4.74 µM in test [5]; 4.12 µM in test [6]. Besides, the TGI in [7] turned out to be 5.29 µM; in test [8], 5.74 µM; in test [9], 3.14 µM; in [10] it was 3.3 µM.

On to `Cc1nn(-c2ccc(S(=O)(=O)[O-])cc2)c([O-])c1N=[N+](C)c1ccc(-c2ccc(N=Nc3ccc4c(S(=O)(=O)[O-])cc(S(=O)(=O)[O-])c(N)c4c3[O-])c([O-])c2)cc1[O-].[Cu+2].[Cu+2].[Na+]`, for which the GI50 in [1], in [2], in test [3], in [4], in test [5] and in test [6] was over 100 µM throughout. Also, the GI50 in [7], in test [8], in test [9] and in test [10] was over 100 µM each time. The TGI in [1], in [2], in test [3], in test [4], in [5] and in test [6] was over 100 µM in each case. For the same compound, the TGI in test [7], in test [8], in test [9] and in [10] was over 100 µM in each case.

Turning to `CCN1CCN(c2nc(NCCCNc3ccnc4cc(Cl)ccc34)c3ccccc3n2)CC1`, the GI50 in test [1] was 2.04 µM; in test [3], 2.07 µM; in test [4] it was 3.5 µM; in test [5], 3.09 µM; in test [6], 2.12 µM; in [7], 2.59 µM. For the same compound, the GI50 in [8] was 2.17 µM; in [9] it was 2.66 µM; in test [10] it was 1.87 µM. The TGI in test [1] is 4.54 µM; in test [3], 9.04 µM; in test [4], 12.9 µM; in test [5], 14.5 µM; in test [6] it was 6.04 µM; in test [7] it was 10.7 µM. Further, the figures for the TGI in test [8], in test [9] and in test [10] were 4.79 µM, 7.17 µM and 3.58 µM, respectively.

Take `CCc1c2c(nc3cc4c(cc13)OCO4)-c1cc3c(c(=O)n1C2)COC(=O)[C@]3(O)CC`: the GI50 in test [1] was under 0.001 µM; in [2], under 0.001 µM; in test [3] it was under 0.001 µM; in [5], 0.277 µM and 0.122 µM; in test [6], 0.00315 µM; in test [7] it was 0.00907 µM. The GI50 in [8] was 0.294 µM and 1.91 µM; in test [10], under 0.001 µM. Also, the TGI in test [1] was 0.146 µM and 0.0376 µM; in test [3], 0.0106 µM and 0.0339 µM; in test [5] it was over 100 µM; in test [6], 0.391 µM; in test [7], 0.622 µM; in [10], 0.195 µM and 0.409 µM.

For `CCCCCCCCCCCCCC(=S)NCCCC[C@H](NC(=O)OCc1ccccc1)C(=O)Nc1ccccc1`, the GI50 in test [1] is 3.15 µM; in [3] it was 3.91 µM; in test [4] it was 4.35 µM; in test [5] it was 2.58 µM; in [6] it was 3.5 µM; in test [7], 5.84 µM. Moreover, the values for the GI50 in test [8], in test [9] and in [10] were 4.4 µM, 3.21 µM and 3.51 µM, respectively. Besides, the TGI was 19.7 µM in test [1]; over 100 µM in test [3]; over 100 µM in test [4]; over 100 µM in [5]; over 100 µM in [6]; over 100 µM in [7]. Also, the TGI in [8], in test [9] and in [10] was over 100 µM in each case.

Consider `CC(=O)c1ccc(Nc2cc(-c3ccccc3)nc3c(O)cccc23)cc1`, for which the GI50 is 20.5 µM in [1]; 41.3 µM in [2]; 19 µM in [4]; 8.62 µM in test [5]; 8.8 µM in [6]; 18.1 µM in test [8]. Moreover, the GI50 was 9.44 µM in test [9] and 12.7 µM in test [10]. The TGI is 74.1 µM in [1]; over 100 µM in [2]; over 100 µM in [4]; over 100 µM in test [5]; 46.8 µM in test [6]; 84.8 µM in test [8]. In addition, the values for the TGI in [9] and in [10] were over 100 µM and 29.6 µM, respectively.

On to `C=C1C(=O)O[C@H]2[C@H]1CC/C(CNC(=O)c1c[nH]c3ccc(F)cc13)=C\CC[C@@]1(C)O[C@@H]21`, for which the GI50 in test [1] is 1.04 µM; in test [3], 1.32 µM; in [4], 2.61 µM; in test [5], 2.91 µM; in test [6], 1.14 µM; in test [7], 1.78 µM. Besides, the GI50 in [9] was 2.68 µM; in test [10] it was 1.27 µM. Also, the TGI stood at 2.38 µM in test [1]; 4.53 µM in test [3]; 10.3 µM in test [4]; 12.1 µM in test [5]; 3.72 µM in [6]; 4.45 µM in test [7]. Besides, the TGI in test [9] was determined as 7.94 µM; in test [10], 3.03 µM.

Turning to `N#Cc1c(-c2cccs2)c2c(=S)[nH]c(=S)[nH]c2[nH]c1=S`, the GI50 in [1] is 23.8 µM; in test [2], 31.4 µM; in [3], 14.3 µM; in [5] it was 30.8 µM; in test [6], 27.4 µM; in test [7] it was 32.4 µM. For the same compound, the GI50 in test [8] was 90.7 µM; in test [9], 30.2 µM; in [10] it was 36.3 µM. Further, the TGI in test [1] was 67.6 µM; in test [2] it was over 100 µM; in [3], 42.7 µM; in test [5], over 100 µM; in test [6] it was 73.6 µM; in test [7], 67.2 µM. For the same compound, the TGI in test [8], in [9] and in test [10] was over 100 µM throughout.

Turning to `COc1ccc(-c2cc(-c3cc(Cl)ccc3Cl)nc3[nH]c(-c4cc(F)c(Cl)cc4Cl)cc(=O)c23)cc1`, the GI50 in test [1] is 19.9 µM; in [2], 34.1 µM; in test [3], 24.2 µM; in test [4], 17 µM; in test [5], 39.3 µM; in test [6] it was 25 µM. For the same compound, the results for the GI50 in [7], in test [9] and in [10] were over 100 µM, 21.8 µM and 14.3 µM, respectively. For the same compound, the TGI in [1] is 69 µM; in [2], over 100 µM; in [3], 68.6 µM; in test [4], 51.3 µM; in [5], over 100 µM; in test [6], 69.1 µM. Moreover, the figures for the TGI in [7], in test [9] and in test [10] were over 100 µM, 61.6 µM and 93.4 µM, respectively.

In the case of `CC(=O)OCC1OC(O[C@@H]2C[C@H]3C(C)(C)[C@H](OC(C)=O)CC[C@]3(C)[C@H]3CCC4=C([C@@H](C)C[C@@H](O)[C@H](O)C(C)(C)O)CC[C@@]4(C)[C@@]32C)C(O)C(O)C1O` (some centres undefined), the GI50 in test [1] is 17.8 µM; in [2], 15.6 µM; in test [3] it was 13.3 µM; in test [4] it was 15.9 µM; in test [5], 14.5 µM; in test [6], 10.5 µM. The GI50 in test [10] is 12.6 µM. Also, the TGI in [1] was 31.9 µM; in [2], 28.9 µM; in test [3], 35.3 µM; in [4], 29.6 µM; in [5], 27.9 µM; in [6] it was 30.1 µM. In addition, the TGI stood at 27.7 µM in [7], 28 µM in test [9] and 25.1 µM in test [10].
